Laboratory results reported in ChEMBL document CHEMBL5505958, “Optimization of sequence and chiral content enhances therapeutic potential of tilapia piscidin peptides” (Eur J Med Chem, 2024).
≈ marks a conversion by molar mass, not a printed value. Calls of active or inactive are those of the source. No cut-off for these calls is given here.

Key:
[1] = tested on: Acinetobacter baumannii; assay: Bactericidal activity against Acinetobacter baumannii 10591 assessed as inhibition of bacterial growth incubated for 16 to 20 hrs in presence of human serum; assay type: functional; conditions: time 16-20 hrs
[2] = tested on: Salmonella typhimurium; assay: Antibacterial activity against Salmonella typhimurium DT104 assessed as inhibition of bacterial growth incubated for 16 to 20 hrs; assay type: functional, Salmonella enterica subsp. enterica serovar Typhimurium; conditions: Salmonella enterica, time 16-20 hrs
[3] = tested on: Escherichia coli; assay: Bactericidal activity against Escherichia coli 10675 assessed as inhibition of bacterial growth incubated for 16 to 20 hrs; assay type: functional; conditions: time 16-20 hrs
[4] = tested on: Rhizopus arrhizus; assay: Fungicidal activity against Rhizopus oryzae 34550 assessed as inhibition of fungal growth incubated for 72 hrs; assay type: functional
[5] = tested on: Klebsiella aerogenes; assay: Antibacterial activity against Enterobacter aerogenes 15630 assessed as inhibition of bacterial growth incubated for 16 to 20 hrs; assay type: functional; conditions: time 16-20 hrs
[6] = tested on: Acinetobacter baumannii; assay: Bactericidal activity against Acinetobacter baumannii 10591 assessed as inhibition of bacterial growth incubated for 16 to 20 hrs; assay type: functional; conditions: time 16-20 hrs
[7] = tested on: Klebsiella pneumoniae; assay: Antibacterial activity against Klebsiella pneumoniae TL 297 assessed as inhibition of bacterial growth incubated for 16 to 20 hrs in presence of human serum; assay type: functional; conditions: time 16-20 hrs
[8] = tested on: Klebsiella aerogenes; assay: Bactericidal activity against Enterobacter aerogenes 15630 assessed as inhibition of bacterial growth incubated for 16 to 20 hrs; assay type: functional; conditions: time 16-20 hrs
[9] = tested on: Enterococcus faecium; assay: Antibacterial activity against Enterococcus faecium 10067 assessed as inhibition of bacterial growth incubated for 16 to 20 hrs; assay type: functional; conditions: time 16-20 hrs
[10] = tested on: Staphylococcus haemolyticus; assay: Antibacterial activity against Staphylococcus haemolyticus 15237 assessed as inhibition of bacterial growth incubated for 16 to 20 hrs; assay type: functional; conditions: time 16-20 hrs
[11] = tested on: Salmonella typhimurium; assay: Bactericidal activity against Salmonella typhimurium DT104 assessed as inhibition of bacterial growth incubated for 16 to 20 hrs; assay type: functional, Salmonella enterica subsp. enterica serovar Typhimurium; conditions: Salmonella enterica, time 16-20 hrs
[12] = tested on: Klebsiella oxytoca; assay: Antibacterial activity against Klebsiella oxytoca 13985 assessed as inhibition of bacterial growth incubated for 16 to 20 hrs; assay type: functional; conditions: time 16-20 hrs
[13] = tested on: Pseudomonas aeruginosa; assay: Bactericidal activity against Pseudomonas aeruginosa 19660 assessed as inhibition of bacterial growth incubated for 16 to 20 hrs in presence of human serum; assay type: functional; conditions: time 16-20 hrs
[14] = tested on: Escherichia coli; assay: Bactericidal activity against Escherichia coli 10675 assessed as inhibition of bacterial growth incubated for 16 to 20 hrs in presence of human serum; assay type: functional; conditions: time 16-20 hrs
[15] = tested on: Escherichia coli; assay: Antibacterial activity against Escherichia coli 10675 assessed as inhibition of bacterial growth incubated for 16 to 20 hrs in presence of human serum; assay type: functional; conditions: time 16-20 hrs
[16] = tested on: Yersinia enterocolitica; assay: Bactericidal activity against Yersinia enterocolitica 13999 assessed as inhibition of bacterial growth incubated for 16 to 20 hrs; assay type: functional; conditions: time 16-20 hrs
[17] = tested on: Klebsiella oxytoca; assay: Antibacterial activity against Klebsiella oxytoca 13985 assessed as inhibition of bacterial growth incubated for 16 to 20 hrs in presence of human serum; assay type: functional; conditions: time 16-20 hrs
[18] = tested on: Klebsiella pneumoniae; assay: Bactericidal activity against Klebsiella pneumoniae 10692 assessed as inhibition of bacterial growth incubated for 16 to 20 hrs; assay type: functional; conditions: time 16-20 hrs
[19] = tested on: Klebsiella pneumoniae; assay: Antibacterial activity against Klebsiella pneumoniae 10692 assessed as inhibition of bacterial growth incubated for 16 to 20 hrs; assay type: functional; conditions: time 16-20 hrs
[20] = tested on: Klebsiella pneumoniae; assay: Antimicrobial activity against drug-resistant Klebsiella pneumoniae BAA 2473 infected in C57BL/6 mouse assessed as reduction in bacterial load at 5 mg/kg, po administered for 2 hrs and measured at 24 hrs; assay type: functional, organism-based; conditions: time 26.0 hrs
[21] = tested on: Klebsiella oxytoca; assay: Bactericidal activity against Klebsiella oxytoca 13985 assessed as inhibition of bacterial growth incubated for 16 to 20 hrs; assay type: functional; conditions: time 16-20 hrs
[22] = tested on: Acinetobacter baumannii; assay: Antibacterial activity against Acinetobacter baumannii 10591 assessed as inhibition of bacterial growth incubated for 16 to 20 hrs in presence of human serum; assay type: functional; conditions: time 16-20 hrs
[23] = tested on: Salmonella enterica; assay: Bactericidal activity against Salmonella enterica 15455 assessed as inhibition of bacterial growth incubated for 16 to 20 hrs; assay type: functional; conditions: time 16-20 hrs
[24] = tested on: Yersinia enterocolitica; assay: Antibacterial activity against Yersinia enterocolitica 13999 assessed as inhibition of bacterial growth incubated for 16 to 20 hrs; assay type: functional; conditions: time 16-20 hrs
[25] = tested on: Acinetobacter baumannii; assay: Antibacterial activity against Acinetobacter baumannii 10591 assessed as inhibition of bacterial growth incubated for 16 to 20 hrs; assay type: functional; conditions: time 16-20 hrs
[26] = tested on: Enterococcus faecalis; assay: Bactericidal activity against Enterococcus faecalis 10066 assessed as inhibition of bacterial growth incubated for 16 to 20 hrs; assay type: functional; conditions: time 16-20 hrs
[27] = tested on: Salmonella enterica; assay: Bactericidal activity against Salmonella enterica 15455 assessed as inhibition of bacterial growth incubated for 16 to 20 hrs in presence of human serum; assay type: functional; conditions: time 16-20 hrs
[28] = tested on: Enterococcus faecalis; assay: Antibacterial activity against Enterococcus faecalis 10066 assessed as inhibition of bacterial growth incubated for 16 to 20 hrs; assay type: functional; conditions: time 16-20 hrs
[29] = tested on: Salmonella typhimurium; assay: Antibacterial activity against Salmonella typhimurium DT104 assessed as inhibition of bacterial growth incubated for 16 to 20 hrs in presence of human serum; assay type: functional, Salmonella enterica subsp. enterica serovar Typhimurium; conditions: Salmonella enterica, time 16-20 hrs
[30] = tested on: Klebsiella oxytoca; assay: Bactericidal activity against Klebsiella oxytoca 13985 assessed as inhibition of bacterial growth incubated for 16 to 20 hrs in presence of human serum; assay type: functional; conditions: time 16-20 hrs
[31] = tested on: Enterococcus faecium; assay: Bactericidal activity against Enterococcus faecium 10067 assessed as inhibition of bacterial growth incubated for 16 to 20 hrs in presence of human serum; assay type: functional; conditions: time 16-20 hrs
[32] = tested on: Vibrio vulnificus; assay: Antibacterial activity against Vibrio vulnificus 204 assessed as inhibition of bacterial growth incubated for 16 to 20 hrs in presence of human serum; assay type: functional; conditions: time 16-20 hrs
[33] = tested on: Salmonella enterica; assay: Antibacterial activity against Salmonella enterica 15455 assessed as inhibition of bacterial growth incubated for 16 to 20 hrs in presence of human serum; assay type: functional; conditions: time 16-20 hrs
[34] = tested on: Klebsiella pneumoniae; assay: Antibacterial activity against Klebsiella pneumoniae BAA 2473 assessed as inhibition of bacterial growth incubated for 16 to 20 hrs; assay type: functional; conditions: time 16-20 hrs
[35] = tested on: Salmonella enterica; assay: Antibacterial activity against Salmonella enterica 15455 assessed as inhibition of bacterial growth incubated for 16 to 20 hrs; assay type: functional; conditions: time 16-20 hrs
[36] = tested on: Vibrio vulnificus; assay: Antibacterial activity against Vibrio vulnificus 204 assessed as inhibition of bacterial growth incubated for 16 to 20 hrs; assay type: functional; conditions: time 16-20 hrs
[37] = tested on: Klebsiella pneumoniae; assay: Bactericidal activity against Klebsiella pneumoniae BAA 2473 assessed as inhibition of bacterial growth incubated for 16 to 20 hrs; assay type: functional; conditions: time 16-20 hrs
[38] = tested on: Klebsiella pneumoniae; assay: Bactericidal activity against Klebsiella pneumoniae TL 297 assessed as inhibition of bacterial growth incubated for 16 to 20 hrs in presence of human serum; assay type: functional; conditions: time 16-20 hrs
[39] = tested on: Staphylococcus aureus; assay: Antibacterial activity against Staphylococcus aureus 10780 assessed as inhibition of bacterial growth incubated for 16 to 20 hrs; assay type: functional; conditions: time 16-20 hrs
[40] = tested on: Vibrio vulnificus; assay: Bactericidal activity against Vibrio vulnificus 204 assessed as inhibition of bacterial growth incubated for 16 to 20 hrs in presence of human serum; assay type: functional; conditions: time 16-20 hrs
[41] = tested on: Rhizopus arrhizus; assay: Antifungal activity against Rhizopus oryzae 34550 assessed as inhibition of fungal growth incubated for 16 to 20 hrs; assay type: functional; conditions: time 16-20 hrs
[42] = tested on: Pseudomonas aeruginosa; assay: Antibacterial activity against Pseudomonas aeruginosa 19660 assessed as inhibition of bacterial growth incubated for 16 to 20 hrs in presence of human serum; assay type: functional; conditions: time 16-20 hrs
[43] = tested on: Salmonella typhimurium; assay: Bactericidal activity against Salmonella typhimurium DT104 assessed as inhibition of bacterial growth incubated for 16 to 20 hrs in presence of human serum; assay type: functional, Salmonella enterica subsp. enterica serovar Typhimurium; conditions: Salmonella enterica, time 16-20 hrs
[44] = tested on: Vibrio vulnificus; assay: Bactericidal activity against Vibrio vulnificus 204 assessed as inhibition of bacterial growth incubated for 16 to 20 hrs; assay type: functional; conditions: time 16-20 hrs
[45] = tested on: Escherichia coli; assay: Antibacterial activity against Escherichia coli 10675 assessed as inhibition of bacterial growth incubated for 16 to 20 hrs; assay type: functional; conditions: time 16-20 hrs
[46] = tested on: Staphylococcus haemolyticus; assay: Bactericidal activity against Staphylococcus haemolyticus 15237 assessed as inhibition of bacterial growth incubated for 16 to 20 hrs; assay type: functional; conditions: time 16-20 hrs
[47] = tested on: Enterococcus faecium; assay: Bactericidal activity against Enterococcus faecium 10067 assessed as inhibition of bacterial growth incubated for 16 to 20 hrs; assay type: functional; conditions: time 16-20 hrs
[48] = tested on: Staphylococcus aureus; assay: Bactericidal activity against Staphylococcus aureus 10780 assessed as inhibition of bacterial growth incubated for 16 to 20 hrs; assay type: functional; conditions: time 16-20 hrs
[49] = tested on: Enterococcus faecium; assay: Antibacterial activity against Enterococcus faecium 10067 assessed as inhibition of bacterial growth incubated for 16 to 20 hrs in presence of human serum; assay type: functional; conditions: time 16-20 hrs
[50] = tested on: Rhizopus arrhizus; assay: Fungicidal activity against Rhizopus oryzae 34550 assessed as inhibition of fungal growth incubated for 16 to 20 hrs in presence of human serum; assay type: functional; conditions: time 16-20 hrs

C[C@H]1c2cccc(O)c2C(=O)C2=C(O)[C@]3(O)C(=O)C(C(N)=O)=C(O)[C@@H](N(C)C)[C@@H]3[C@@H](O)[C@@H]21 [DOXYCYCLINE ANHYDROUS]
MBC [1]: 6.25 µM | MIC [2]: 6.25 µM (≈ 2.78 µg/mL) | MBC [3]: 100 µM (≈ 44.4 µg/mL) | MFC [4]: > 100 µM | MIC [5]: 3.13 µM (≈ 1.39 µg/mL) | MBC [6]: 1.56 µM (≈ 0.693 µg/mL) | MIC [7]: 25 µM | MBC [8]: 200 µM (≈ 88.9 µg/mL) | MIC [9]: 0.2 µM (≈ 0.0889 µg/mL) | MIC [10]: < 1.56 µM | MBC [11]: 6.25 µM (≈ 2.78 µg/mL) | MIC [12]: 6.25 µM (≈ 2.78 µg/mL) | MBC [13]: 6.25 µM | MBC [14]: 100 µM | MIC [15]: 3.13 µM | MBC [16]: < 1.56 µM | MIC [17]: 6.25 µM | MBC [18]: 100 µM (≈ 44.4 µg/mL) | MIC [19]: 3.13 µM (≈ 1.39 µg/mL) | Activity [20]: inactive | MBC [21]: 200 µM (≈ 88.9 µg/mL) | MIC [22]: 1.56 µM | MBC [23]: > 100 µM | MIC [24]: 3.13 µM (≈ 1.39 µg/mL) | MIC [25]: 0.78 µM (≈ 0.347 µg/mL) | MBC [26]: 6.25 µM (≈ 2.78 µg/mL) | MBC [27]: > 100 µM | MIC [28]: < 1.56 µM | MIC [29]: 12.5 µM | MBC [30]: 100 µM | MBC [31]: 12.5 µM | MIC [32]: < 0.39 µM | MIC [33]: 6.25 µM | MIC [34]: 50 µM (≈ 22.2 µg/mL) | MIC [35]: 3.13 µM (≈ 1.39 µg/mL) | MIC [36]: < 0.39 µM | MBC [37]: 100 µM (≈ 44.4 µg/mL) | MBC [38]: 25 µM | MIC [39]: 0.2 µM (≈ 0.0889 µg/mL) | MBC [40]: < 0.39 µM | MIC [41]: > 100 µM | MIC [42]: 6.25 µM | MBC [43]: > 100 µM | MBC [44]: < 0.39 µM | MIC [45]: 3.13 µM (≈ 1.39 µg/mL) | MBC [46]: < 1.56 µM | MBC [47]: 6.25 µM (≈ 2.78 µg/mL) | MBC [48]: 12.5 µM (≈ 5.56 µg/mL) | MIC [49]: 0.39 µM | MFC [50]: 12.5 µM
